Measurements as given in patent publication US20080306056A1, “PYRAZOLE-DERIVATIVES AS FACTOR Xa INHIBITORS” (SANOFI-AVENTIS DEUTSCHLAND GMBH, priority 2002, published 2008).

Target: T1, human factor Xa (Homo sapiens, UniProt P00742)
T1 construct: 25 μl human factor Xa (Enzyme Research Laboratories, Inc; South Bend, Ind.); purchased Enzyme Research Laboratories, Inc; South Bend, Ind
Experiment: Factor Xa assay (chromogenic, purified enzyme)
Type: biochemical
Conditions: inhibition constant for factor Xa; chromogenic substrate S-2765 140 μM, enzyme 0.5 nM, 25° C., pH 7.8; Ki=IC50/{1+(substrate concentration/Km)}; read-out: Ki(FXa)
Procedure, shortened: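 Human factor Xa (0.5 nM) pre-incubated 10 min with compound in TBS-PEG/DMSO, then S-2765 (140 μM) added; initial hydrolysis rate read at 405 nm, 25°C. IC50 by linear regression of relative rate vs log concentration; Ki = IC50/(1+[S]/Km).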

T1 sequence (P00742 235-488 limits assumed): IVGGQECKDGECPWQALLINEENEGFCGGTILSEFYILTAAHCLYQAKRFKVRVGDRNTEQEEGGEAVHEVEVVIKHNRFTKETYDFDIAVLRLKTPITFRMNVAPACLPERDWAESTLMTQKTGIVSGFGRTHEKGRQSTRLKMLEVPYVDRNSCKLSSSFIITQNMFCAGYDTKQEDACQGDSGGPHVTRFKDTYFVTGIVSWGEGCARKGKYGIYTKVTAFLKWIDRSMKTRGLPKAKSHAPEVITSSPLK
T1 sequence (P00742 41-179 partner limits assumed): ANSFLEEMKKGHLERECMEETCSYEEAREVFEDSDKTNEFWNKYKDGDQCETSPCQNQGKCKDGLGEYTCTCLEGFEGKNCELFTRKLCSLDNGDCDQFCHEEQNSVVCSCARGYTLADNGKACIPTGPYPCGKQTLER

SMILES | Ki [µM]
COCCOCCOc1cc(C(=O)NC2CCN(C(C)C)CC2)n(CC(=O)Nc2ccc(Cl)cn2)n1 [Example 104, 2-[(5-Chloro-pyridin-2-ylcarbamoyl)-methyl]-5-[2-(2-methoxy-ethoxy)-ethoxy]-2H-pyrazole-3-carboxylic acid (1-isopropyl-piperidin-4-yl)-amide] | 0.025
CC(C)N1CCC(NC(=O)c2cc(OCC(F)(F)F)nn2CC(=O)Nc2ccc(Cl)cn2)CC1 [Example 105, 2-[(5-Chloro-pyridin-2-ylcarbamoyl)-methyl]-5-(2,2,2-trifluoro-ethoxy)-2H-pyrazole-3-carboxylic acid (1-isopropyl-piperidin-4-yl)-amide] | 0.021
COCCOC(=O)c1cc(C(=O)NC2CCN(C(C)C)CC2)n(CC(=O)Nc2ccc(Cl)cn2)n1 [Example 106, 1-[(5-Chloro-pyridin-2-ylcarbamoyl)-methyl]-5-(1-isopropyl-piperidin-4-ylcarbamoyl)-1H-pyrazole-3-carboxylic acid 2-methoxy-ethyl ester] | 0.016
CC(C)N1CCC(NC(=O)c2cc(C(=O)OCCO)nn2CC(=O)Nc2ccc(Cl)cn2)CC1 [Example 107, 1-[(5-Chloro-pyridin-2-ylcarbamoyl)-methyl]-5-(1-isopropyl-piperidin-4-ylcarbamoyl)-1H-pyrazole-3-carboxylic acid 2-hydroxy-ethyl ester] | 0.02
CC(C)N1CCC(NC(=O)c2cc(C(=O)N3CCCOCC3)nn2CC(=O)Nc2ccc(Cl)cn2)CC1 [Example 108, 2-[(5-Chloro-pyridin-2-ylcarbamoyl)-methyl]-5-([1,4]oxazepane-4-carbonyl)-2H-pyrazole-3-carboxylic acid (1-isopropyl-piperidin-4-yl)-amide] | 0.039
CC(C)N1CCC(NC(=O)c2cc(C(=O)OCCO)nn2Cc2cc(-c3ccc(Cl)s3)on2)CC1 [Example 110, 1-[5-(5-Chloro-thiophen-2-yl)-isoxazol-3-ylmethyl]-5-(1-isopropyl-piperidin-4-ylcarbamoyl)-1H-pyrazole-3-carboxylic acid 2-hydroxy-ethyl ester] | 0.081
CC(C)N1CCC(NC(=O)c2cc(C(=O)OCC(=O)O)nn2Cc2cc(-c3ccc(Cl)s3)on2)CC1 [Example 111, 1-[5-(5-Chloro-thiophen-2-yl)-isoxazol-3-ylmethyl]-5-(1-isopropyl-piperidin-4-ylcarbamoyl)-1H-pyrazole-3-carboxylic acid carboxymethyl ester] | 0.049
